In patent US5650394A, “Use of urinastatin-like compounds to prevent premature delivery” (Adeza Biomedical, priority 1993, dated 1997):

Columns and labels:
[1] = Example 2 clinical comparison of regimens in 168 patients with imminent premature delivery; format: in vivo, human
Protocol: 168 patients in their 24th to 35 week of pregnancy were diagnosed with imminent premature delivery. The diagnosis of imminent premature delivery was based on a tocolysis index of 2 or greater. Factors of cervical dilation, ruptured membranes, uterine activity and vaginal bleeding were considered for the tocolysis index. The index is the sum of these points.
A number of regimens were compared. Group 1 received ritodrine intravenous infusion at 50-300 μg per day. Groups 2 and 3 were given daily urinastatin suppositories containing 5000 units and 1000 units, respectively. Group 4 received IV ritodrine at 50-300 μg per day and one 1000 unit urinastatin suppository per day. Group 5 received IV ritodrine at 50-300 μg per day, one 1000 unit urinastatin suppository per day, and cephalosporin. The patients were treated until they delivered.
The tocolysis index immediately before the start of treatment varied from 2-8. Elastase levels obtained from specimen of endocervical secretions were determined at admission to the study. "Hours to Neg UA", or the time until the number of uterine contractions in 30 minutes decreased to one or less, was reported. "Recur UA", or the proportion of women experiencing recurrence of at least one uterine contraction every 30 minutes after therapy lasting 4 days or longer was discontinued also was observed. "EGA Toco" is the estimated gestational age at the beginning of therapy. "EGA Del" is the estimated gestational age at delivery. The "interval" is the number of weeks between EGA Toco and EGA Del. "PTD<37 Wks" is the number of preterm births before 37 weeks. "PTD<34 Wks" is the number of preterm births before 34 weeks, or seriously premature infants.

[2] = cited from earlier work; for time required for the number of uterine contractions (UC) to decrease to less than 1 per 30 minutes: 24th-35th weeks of pregnancy, tocolysis index 3-4, no PROM
granulocyte elastase = details: patients treated with urinastatin (groups B, C and D); cited from earlier work

CC(NCCc1ccc(O)cc1)C(O)c1ccc(O)cc1 (stereo not shown) [ritodrine]
preterm deliveries of less than 34 wk, share of all deliveries ([1]; PTD<34 Wks): approximately 21%
preterm deliveries of less than 37 wk, share of all deliveries ([1]; PTD<37 Wks): ~42%
rate of recurrence of uterine activity ([1]; in spite of continuous administration of the drug): over 30%
Hours to Neg UA: time until uterine contractions in 30 minutes decreased to one or less ([1]; study average 3.1 hr): 1.4 h
patients with recurrence of UC after therapy was discontinued ([2]; therapy discontinued when UC had been depressed for 4 days): Approximately 60%
time required for the number of uterine contractions (UC) to decrease to less than 1 per 30 minutes ([2]; women): about an hour
women with premature deliveries ([2]; women, 24th-35th weeks, tocolysis index 3-4): 25%

B1: urinastatin (protein, UniProt P02760 206-352, looked up)
Inter-alpha-trypsin inhibitor …: AVLPQEEEGSGGGQLVTEVTKKEDSCQLGYSAGPCMGMTSRYFYNGTSMACETFQYGGCMGNGNNFVTEKECLQTCRTVAACNLPIVRGPCRAFIQLWAFDAVKGKCVLFPYGGCQGNGNKFYSEKECREYCGVPGDGDEELLRFSN
modifications: Inter-alpha-trypsin inhibitor light chain
notes: glycoprotein of less than about 67 kD purified from human urine
premature deliveries (number of patients) ([2]; groups B and D had 9 and 8 patients, group C 14): no premature deliveries
time required for the number of uterine contractions (UC) to decrease to less than 1 per 30 minutes ([2]; women): about 6 hours
elastase in vaginal secretions (granulocyte elastase): decreased
